Consider 2 compounds from PMC11173618, “C2-Symmetrical Terphenyl Derivatives as Small Molecule Inhibitors of Programmed Cell Death 1/Programmed Death Ligand 1 Protein–Protein Interaction” (Molecules, 2024).

The target of one experiment is T1, PD-1/PD-L1 complex (Homo sapiens, UniProt Q9NZQ7).
T1 construct: purchased cis-bio
In words: HTRF assay of PD-1/PD-L1 complex inhibition (cis-bio kit). The class given is binding. Conditions: 1 h, scouting mode, 5 nM PD-L1, 50 nM PD-1, read-out: HTRF [%] (percentage of dissociated PD-1/PD-L1 complex); for inhibition at 0.5 µM: inhibitor 0.5 µM; for inhibition at 5 µM: inhibitor 5 µM. The method, then:
All synthesized molecules were tested in the homogeneous time-resolved fluorescence (HTRF) assay to assess their activity as inhibitors of the PD-1/PD-L1 complex (Table 1, Table 2 and Table 3). This evaluation was conducted in scouting modes, employing concentrations of 5 μM and 0.5 μM. Based on the obtained measurements, the IC50 values were estimated for each tested compound.
The certified cis-bio assay kit was used to perform the HTRF assay. Following the standard protocol, the measurement was carried out at a 20 µL final volume with a 5 nM concentration of PD-L1 and a 50 nM concentration of PD-1 in the final formulation. […] The plate was incubated for 1 h and then read on an HTRF-certified Tecan Spark 20M microplate reader. Output data were subjected to background subtraction on negative control (without PD-1) and normalization in correlation to the positive control (without inhibitor) and were then averaged. The resulting data points were then fitted with Hill’s equation to generate IC50 using Mathematica 12. […]

Experiment [1] concerns the target T2, human PD-L1 protein (amino acids 18-134) (Homo sapiens, UniProt Q9NZQ7).
T2 construct: human PD-L1 protein (amino acids 18-134); made in house; host or cells: E. coli BL21 (pET-21b)
Description: 1H NMR binding assay. The note with it: ligand/protein 1:1, 0.2 mM PD-L1, 300 K.
Description: NMR spectra were recorded in 10 mM Tris, pH 8.0 20 mM NaCl containing 10% (v/v) of D2O added to the samples to provide the lock signal. Water suppression was carried out using the WATERGATE sequence. All the spectra were recorded at 300 K using a Bruker AVANCE 600 MHz spectrometer (Bruker, Billerica, MA, USA) with the cryoplatform.
The spectra were recorded at the ligand/protein ratio of 1:1 unless stated otherwise. The samples were prepared by adding small amounts of a 50 mM ligand stock solution in DMSO to the protein solution (0.20 mL) of PD-L1 fragment at a concentration of 0.2 mM. […] Spectra were visualized using TopSpin 4.0.2.

T1 sequence (Q9NZQ7 19-238 limits assumed, one chain of several): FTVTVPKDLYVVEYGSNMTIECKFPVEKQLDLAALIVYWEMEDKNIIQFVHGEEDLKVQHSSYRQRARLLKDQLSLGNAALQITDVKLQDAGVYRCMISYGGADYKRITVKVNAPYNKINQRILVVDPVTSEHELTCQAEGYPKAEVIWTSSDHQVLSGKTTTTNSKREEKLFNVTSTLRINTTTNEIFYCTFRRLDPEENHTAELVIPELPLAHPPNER
T2 sequence (Q9NZQ7 18-134): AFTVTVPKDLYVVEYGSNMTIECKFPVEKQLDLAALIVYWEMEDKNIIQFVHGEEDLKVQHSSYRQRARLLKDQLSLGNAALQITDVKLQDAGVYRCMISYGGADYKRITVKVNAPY

Turning to `COc1cccc(CNCCNC(C)=O)c1OCc1cccc(-c2cccc(-c3cccc(COc4c(CNCCNC(C)=O)cccc4OC)c3)c2C)c1` [Compound 8b, N,N’-(((((((2′-methyl-[1,1′:3′,1′′-terphenyl]-3,3′′-diyl)bis(methylene))bis(oxy))bis(3-methoxy-2,1-phenylene))bis(methylene))bis(azanediyl))bis(ethane-2,1-diyl))diacetamide], on PD-1/PD-L1 complex, the inhibition at 0.5 µM worked out at 88.9 ± 3.8% and the inhibition at 5 µM came out at 73.6 ± 5.3%. For the same compound, the “Binding to PD-L1 by 1H NMR (broadening of PD-L1 proton signals)” value in experiment [1] is recorded as “affinity of the test compounds for the PD-L1 protein is confirmed”.

With `COc1cccc(CNCCO)c1OCc1cccc(-c2cccc(-c3cccc(COc4c(CNCCO)cccc4OC)c3)c2C)c1` [Compound 8c, 2,2′-((((((2′-methyl-[1,1′:3′,1′′-terphenyl]-3,3′′-diyl)bis(methylene))bis(oxy))bis(3-methoxy-2,1-phenylene))bis(methylene))bis(azanediyl))bis(ethan-1-ol)], on PD-1/PD-L1 complex, the inhibition at 0.5 µM was 104 ± 3.3% and the inhibition at 5 µM came to 61.1 ± 4.5%.
